Laboratory results taken from the supplement of paper PMC4862054.
“And” between values parts separate entries of the source, which are not always exact repeats. Equal entries are not always repeated.

How the values were obtained:
Settings in all cases: incubation time: 72 h
[1] = test system: Hs578T; assay: drug sensitivity score (DSS), CellTox Green (DSS (AUC-based score)); higher = stronger drug effect (viability inhibition or cytotoxicity); extreme values may be limits of the assay
Summary of the method: (§1)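 Breast cancer cells were seeded into 384-well plates containing compound at 5 concentrations in 10-fold steps over a compound-specific 10,000-fold range and incubated 72 h. After CellTox Green and CellTiter-Glo readings, each plate was normalised to 0.1 % DMSO and a positive kill control. The drug sensitivity score rests on the area under the fitted dose-response curve.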

[2] = test system: CAL-148; assay: as above
Summary of the method: as §1

[3] = test system: HDQ-P1; assay: as above
Summary of the method: as §1

[4] = test system: DU-4475; assay: as above
Summary of the method: as §1

[5] = test system: HCC1143; assay: as above
Summary of the method: as §1

[6] = test system: BT-549; assay: as above
Summary of the method: as §1

[7] = test system: CAL-85-1; assay: as above
Summary of the method: as §1

[8] = test system: CAL-51; assay: as above
Summary of the method: as §1

[9] = test system: HCC1599; assay: as above
Summary of the method: as §1

[10] = test system: CAL-120; assay: as above
Summary of the method: as §1

[11] = test system: MDA-MB-436; assay: as above
Summary of the method: as §1

[12] = test system: MDA-MB-231; assay: as above
Summary of the method: as §1

[13] = test system: MDA-MB-453; assay: as above
Summary of the method: as §1

[14] = test system: MDA-MB-468; assay: as above
Summary of the method: as §1

[15] = test system: BT-474; assay: as above
Summary of the method: as §1

[16] = test system: MFM-223; assay: normalised viability (% of control), CellTiter-Blue; higher = more viable cells (about 100 = DMSO control)
Summary of the method: (§2)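 Compound dissolved in 5 µl medium was pre-loaded into 384-well plates, and breast cancer cell lines in 20 µl suspension were seeded on top and incubated 72 h. After adding 2.5 µl CellTiter-Blue reagent for 2 h at 37 °C, fluorescence was read at 560/590 nm. Plates were normalised to vehicle (100) and a positive kill control (0), with Z'-factor quality control. Each value is normalised viability at a single listed concentration from the series.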

[17] = test system: Hs578T; assay: as above
Summary of the method: as §2

[18] = test system: CAL-148; assay: as above
Summary of the method: as §2

[19] = test system: HDQ-P1; assay: as above
Summary of the method: as §2

[20] = test system: DU-4475; assay: as above
Summary of the method: as §2

[21] = test system: HCC1937; assay: as above
Summary of the method: as §2

[22] = test system: BT-549; assay: as above
Summary of the method: as §2

[23] = test system: CAL-85-1; assay: as above
Summary of the method: as §2

[24] = test system: CAL-51; assay: as above
Summary of the method: as §2

[25] = test system: BT-474; assay: as above
Summary of the method: as §2

## COc1cc([C@@H]2c3cc4c(cc3[C@@H](O[C@@H]3O[C@@H]5CO[C@@H](c6cccs6)O[C@H]5[C@H](O)[C@H]3O)[C@H]3COC(=O)[C@H]23)OCO4)cc(OC)c1O [Teniposide]
[1]
  drug sensitivity score: 2.53
[2]
  drug sensitivity score: 25.1
[3]
  drug sensitivity score: 7.08
[4]
  drug sensitivity score: 4.49
[5]
  drug sensitivity score: 0
[6]
  drug sensitivity score: 0
[7]
  drug sensitivity score: 7.07
[8]
  drug sensitivity score: 11.8
[9]
  drug sensitivity score: 3.84
[10]
  drug sensitivity score: 4.54
[11]
  drug sensitivity score: 0
[12]
  drug sensitivity score: 10.8
[13]
  drug sensitivity score: 0
[14]
  drug sensitivity score: 6.45
[15]
  drug sensitivity score: 0
[16]; 10 nM
  normalised viability: 99.3%
[16]; 1000 nM
  normalised viability: 84.4%
[16]; 10000 nM
  normalised viability: 13.1%
[17]; 10 nM
  normalised viability: 109%
[17]; 1000 nM
  normalised viability: 94.5%
[17]; 10000 nM
  normalised viability: 12.2%
[18]; 3 nM
  normalised viability: 103%
[18]; 30 nM
  normalised viability: 69.3%
[18]; 100 nM
  normalised viability: 61%
[19]; 3 nM
  normalised viability: 113%
[19]; 30 nM
  normalised viability: 113%
[19]; 100 nM
  normalised viability: 104%
[20]; 3 nM
  normalised viability: 82%
[20]; 30 nM
  normalised viability: 67.8%
[20]; 100 nM
  normalised viability: 28.1%
[21]; 10 nM
  normalised viability: 82.3%
[21]; 1000 nM
  normalised viability: 21%
[21]; 10000 nM
  normalised viability: 18.8%
[22]; 10 nM
  normalised viability: 101%
[22]; 1000 nM
  normalised viability: 62.4%
[22]; 10000 nM
  normalised viability: 8.99%
[23]; 3 nM
  normalised viability: 103%
[23]; 30 nM
  normalised viability: 89.7%
[23]; 100 nM
  normalised viability: 94.5%
[24]; 3 nM
  normalised viability: 98.2%
[24]; 30 nM
  normalised viability: 78.2%
[24]; 100 nM
  normalised viability: 43.4%
[25]; 10 nM
  normalised viability: 118%
[25]; 1000 nM
  normalised viability: 113%
[25]; 10000 nM
  normalised viability: 50.8%

## Nc1ncn([C@H]2C[C@H](O)[C@@H](CO)O2)c(=O)n1 [Decitabine]
[1]
  drug sensitivity score: 0
[2]
  drug sensitivity score: 0
[3]
  drug sensitivity score: 0
[4]
  drug sensitivity score: 0
[5]
  drug sensitivity score: 0
[6]
  drug sensitivity score: 0
[7]
  drug sensitivity score: 2.72
[8]
  drug sensitivity score: 7.63
[9]
  drug sensitivity score: 0
[10]
  drug sensitivity score: 0
[11]
  drug sensitivity score: 0
[12]
  drug sensitivity score: 0
[13]
  drug sensitivity score: 0.571
[14]
  drug sensitivity score: 0.872
[15]
  drug sensitivity score: 0
[16]; 10 nM
  normalised viability: 80.2% and 104%
[16]; 1000 nM
  normalised viability: 84.7% and 102%
[16]; 10000 nM
  normalised viability: 90.1% and 98.6%
[17]; 10 nM
  normalised viability: 103% and 112%
[17]; 1000 nM
  normalised viability: 92.5% and 114%
[17]; 10000 nM
  normalised viability: 83.6% and 93.2%
[18]; 3 nM
  normalised viability: 92.8% and 76.2%
[18]; 30 nM
  normalised viability: 91.4% and 85.8%
[18]; 100 nM
  normalised viability: 86.2% and 96.3%
[19]; 30 nM
  normalised viability: 93% and 96.6%
[19]; 100 nM
  normalised viability: 96.1% and 92%
[20]; 3 nM
  normalised viability: 110% and 98.7%
[20]; 30 nM
  normalised viability: 81.5% and 97.7%
[20]; 100 nM
  normalised viability: 86.9% and 96.8%
[21]; 10 nM
  normalised viability: 120% and 99%
[21]; 1000 nM
  normalised viability: 77.2% and 76.6%
[21]; 10000 nM
  normalised viability: 69.2% and 62.8%
[22]; 10 nM
  normalised viability: 94.6% and 101%
[22]; 1000 nM
  normalised viability: 81.7% and 89.3%
[22]; 10000 nM
  normalised viability: 57.7% and 65.1%
[23]; 3 nM
  normalised viability: 91.9% and 103%
[23]; 30 nM
  normalised viability: 83.4% and 91.2%
[23]; 100 nM
  normalised viability: 93.6% and 93.9%
[24]; 3 nM
  normalised viability: 116% and 108%
[24]; 30 nM
  normalised viability: 117% and 101%
[24]; 100 nM
  normalised viability: 101% and 96.8%
[25]; 10 nM
  normalised viability: 109% and 104%
[25]; 1000 nM
  normalised viability: 89.4% and 86.7%
[25]; 10000 nM
  normalised viability: 95.1% and 79.7%

## C[C@H]1C[C@@H]2[C@H]([C@@H](O)C[C@@]3(C)[C@H]2CC[C@]3(O)C(=O)CO)[C@@]2(C)C=CC(=O)C=C12 [Methylprednisolone]
[1]
  drug sensitivity score: 0
[2]
  drug sensitivity score: 0
[3]
  drug sensitivity score: 0
[4]
  drug sensitivity score: 0
[5]
  drug sensitivity score: 0
[6]
  drug sensitivity score: 0
[7]
  drug sensitivity score: 0
[8]
  drug sensitivity score: 0
[9]
  drug sensitivity score: 0
[10]
  drug sensitivity score: 0
[11]
  drug sensitivity score: 0
[12]
  drug sensitivity score: 0
[13]
  drug sensitivity score: 0
[14]
  drug sensitivity score: 0
[15]
  drug sensitivity score: 0
[16]; 10 nM
  normalised viability: 89.4%
[16]; 1000 nM
  normalised viability: 86.3%
[16]; 10000 nM
  normalised viability: 74.8%
[17]; 10 nM
  normalised viability: 102%
[17]; 1000 nM
  normalised viability: 116%
[17]; 10000 nM
  normalised viability: 111%
[18]; 3 nM
  normalised viability: 88%
[18]; 30 nM
  normalised viability: 99.4%
[18]; 100 nM
  normalised viability: 102%
[19]; 3 nM
  normalised viability: 108%
[19]; 30 nM
  normalised viability: 103%
[19]; 100 nM
  normalised viability: 122%
[20]; 3 nM
  normalised viability: 84.7%
[20]; 30 nM
  normalised viability: 83.5%
[20]; 100 nM
  normalised viability: 86.4%
[21]; 10 nM
  normalised viability: 80.2%
[21]; 1000 nM
  normalised viability: 106%
[21]; 10000 nM
  normalised viability: 80.4%
[22]; 10 nM
  normalised viability: 89.4%
[22]; 1000 nM
  normalised viability: 77.8%
[22]; 10000 nM
  normalised viability: 78.4%
[23]; 3 nM
  normalised viability: 87.6%
[23]; 30 nM
  normalised viability: 102%
[23]; 100 nM
  normalised viability: 109%
[24]; 3 nM
  normalised viability: 100%
[24]; 30 nM
  normalised viability: 100%
[24]; 100 nM
  normalised viability: 98.2%
[25]; 10 nM
  normalised viability: 121%
[25]; 1000 nM
  normalised viability: 105%
[25]; 10000 nM
  normalised viability: 112%

## Oc1ncc(N(CCCl)CCCl)c(O)n1 [Uracil mustard]
[1]
  drug sensitivity score: 0
[2]
  drug sensitivity score: 0
[3]
  drug sensitivity score: 0
[4]
  drug sensitivity score: 0
[5]
  drug sensitivity score: 0
[6]
  drug sensitivity score: 0
[7]
  drug sensitivity score: 0
[8]
  drug sensitivity score: 0
[9]
  drug sensitivity score: 0
[10]
  drug sensitivity score: 0
[11]
  drug sensitivity score: 0
[12]
  drug sensitivity score: 0
[13]
  drug sensitivity score: 0
[14]
  drug sensitivity score: 0
[15]
  drug sensitivity score: 0
[16]; 10 nM
  normalised viability: 99.2%
[16]; 1000 nM
  normalised viability: 95.9%
[16]; 10000 nM
  normalised viability: 99.8%
[17]; 10 nM
  normalised viability: 106%
[17]; 1000 nM
  normalised viability: 100%
[17]; 10000 nM
  normalised viability: 80.3%
[18]; 3 nM
  normalised viability: 85.3%
[18]; 30 nM
  normalised viability: 97.1%
[18]; 100 nM
  normalised viability: 101%
[19]; 3 nM
  normalised viability: 124%
[19]; 30 nM
  normalised viability: 111%
[19]; 100 nM
  normalised viability: 107%
[20]; 3 nM
  normalised viability: 92%
[20]; 30 nM
  normalised viability: 89.5%
[20]; 100 nM
  normalised viability: 101%
[21]; 10 nM
  normalised viability: 143%
[21]; 1000 nM
  normalised viability: 82.4%
[21]; 10000 nM
  normalised viability: 66.7%
[22]; 10 nM
  normalised viability: 93.4%
[22]; 1000 nM
  normalised viability: 103%
[22]; 10000 nM
  normalised viability: 90.6%
[23]; 3 nM
  normalised viability: 94.2%
[23]; 30 nM
  normalised viability: 94.2%
[23]; 100 nM
  normalised viability: 96.7%
[24]; 3 nM
  normalised viability: 96.7%
[24]; 30 nM
  normalised viability: 96.7%
[24]; 100 nM
  normalised viability: 95.7%
[25]; 10 nM
  normalised viability: 122%
[25]; 1000 nM
  normalised viability: 120%
[25]; 10000 nM
  normalised viability: 116%
